Entries after “also recorded” stand apart in the source; their conditions may differ. One block for each compound: values may come before it.
Assays:
Arabidopsis seedlings [1] = test: Arabidopsis hypocotyl elongation assay; format: in vivo; conditions: 1.0 μM
Method: Sterilized Arabidopsis seeds were sown on half strength MS (with 0.5% sucrose+1% agar, 0.5 g L-1 MES, pH 5.7) plates supplemented with MPs or GR24 (at 1.0 μM). Plates were stored at 4° C. in darkness for 3 days. To initiate germination, plates were exposed to continuous white light for 24 h then transferred to continuous monochromatic red light (160 Lux, 22° C.) conditions for another 4 days. For hypocotyl length measurement, at least 30 seedlings were measured using the publically available ImageJ software (http://rsbweb.nih.gov/ij/) after taking digital photographs. Monochromatic red light source was applied as described previously (Wu and Yang, 2010). Light flow rates were measured using a Li250 quantum photometer (Li-Cor, Lincoln, NE, USA).

[2] = Chemical stability of MPs in aqueous solution, monitored by HPLC; format: physicochemical; conditions: aqueous solution pH 6.8, 21° C., monitored at 24 h intervals up to 3 weeks
Method: Aqueous solutions of MPs (50 μg ml-1; pH 6.8) were incubated at 21° C. in amber HPLC vials. For sample preparation, 50 μl of an acetone solution (1 mg ml-1) was diluted to the final concentration with methanol (425 μl), water (500 μl) and 25 μl of 1-Indanol (1.0 mg ml-1 solution in acetone) as internal standard. […] The column was operated at 35° C. with a flow rate of 0.25 ml per min. Compounds eluted from the column were detected with a Diode array detector. Relative quantity of remaining (non-degraded) product was determined by comparison to the internal standard.

S. hermonthica = conditions: in vivo; cited from earlier work
Arabidopsis seedlings [3] = test: Arabidopsis lateral root density and primary root length; format: in vivo; conditions: 1.0 μM, 8 days old seedlings
Method: Sterilized Arabidopsis seeds were sown on half strength MS (with 0.5% sucrose+1% agar, 0.5 g L^−1 MES, pH 5.7) plates supplemented with GR24 or MPs (at 1.0 μM). Plates were stored at 4° C. in darkness for 3 days and then vertically grown at 22° C. in Percival incubator under long day condition (16 h at 22° C./8 h at 16° C. day/night, 60% relative humidity, 4000-5000 LUX white light) for 8 days. For determining the effect on lateral root density and primary root length, at least 30 seedlings were measured using publically available ImageJ software (http://rsbweb.nih.gov/ij/) after scanning roots.

P. ramosa seeds = test: P. ramosa seed germination bioassay; format: in vivo; conditions: 1.0 μM
Method: (§1) Parasitic weed seeds (S. hermonthica and P. ramosa) germination activity was recorded as described previously (Jamil et al., 2012). Six pre-conditioned seed discs were placed in a 90 mm petri-dish containing a filter paper ring wetted with 0.9 ml sterile MilliQ water. […] GR24 solutions with equal concentrations and sterile MilliQ water were included as a positive and negative control, respectively. After application, seeds were incubated at 30° C./25° C. in the dark for two days. Germination (seeds with radical emerging through seed coat) was scored under a binocular microscope, and germination rate (%) was calculated.

S. hermonthica seeds = test: Striga hermonthica seed germination bioassay; format: in vivo; conditions: comparison between compounds
Method: as §1, with “calculated. Statistical analyses were carried out using statistical software package R (version 3.2.2). Dose-response curves and Half Maximum Effective Concentrations (EC50) were calculated to determine optimum amount of MPs. Synthetic strigolactone analog GR24 was used as reference to estimate efficacy of selected compounds. EC50 and estimated response were calculated using drc package (https://cran.r390 project.org/web/packages/drc/) with a Four Parameter Logistic Curve (Dose Response Curve) (Ritz and Streibig, 2005).” for “calculated.”

[4] = system: rice seedlings (Shiokari, d3, d10); test: Growth and fresh biomass of hydroponically grown rice seedlings; format: in vivo; conditions: 2.5 μM, twice a week for three weeks
Method: Rice seeds (WT, d3, d10) were surface-sterilized by washing with 70% ethanol for 1 min and then with 2.5% sodium hypochlorite for 15 min. Seeds were then rinsed thoroughly with sterile MilliQ water and incubated in water for 2 days at 30° C. in the dark. Pre-germinated seeds were transferred to filter papers containing ½ strength MS medium in 90 mm petri dishes and incubated at 30° C. under fluorescent white light (130-180 μM m^−2 s^−1) for one week. Seven day-old seedlings were transferred to 50 ml falcon tubes (one seedling per tube) containing modified half-strength Hoagland nutrient solution and grown in greenhouse. Plants were treated with MPs at 2.5 μM-2.5×10-7 μM, using GR24 as positive control. The compounds were applied six times, twice a week. Number of tillers per plant, plant height and fresh biomass were measured at final harvest.

Structure (SMILES): CC1=CC(O/C=C(C)\C=C\C2=C(C)CCCC2(C)C)OC1=O (centres unmarked) [Carlactone]
- Activity in S. hermonthica seed germination (S. hermonthica): considerable activity

Structure (SMILES): CC1=CC(O/C=C2/C(=O)OCc3ccccc32)OC1=O (centres unmarked) [MP5]
- Stability in comparison to GR24 [2]: more stable than GR24; also recorded: the most stable compound

Structure (SMILES): COC(=O)/C(=C/OC1C=C(C)C(=O)O1)c1ccc(OC)cc1 (centres unmarked) [MP14]
- Stability in comparison to GR24 [2]: very similar to that of GR24

The next lines start with results.

- Stability in comparison to GR24 [2]: not detectable even after only 24 h
Structure (SMILES): CC1=CC(O/C=C(/C=O)c2ccc([N+](=O)[O-])cc2)OC1=O (racemic) [MP12, (E)-3-(4-methyl-5-oxo-2,5-dihydrofuran-2-yloxy)-2-(4-nitrophenyl)acrylaldehyde]
- Inhibition of hypocotyl growth (Arabidopsis seedlings [1]): Apart from MP12 and MP15, all MPs showed significant inhibition

- Stability in comparison to GR24 [2]: very similar to that of GR24
Structure (SMILES): COC(=O)/C(=C/OC1C=C(C)C(=O)O1)c1cccc(Cl)c1 (centres unmarked) [MP8]
- Reduction of number of lateral roots / lateral root density (Arabidopsis seedlings [3]): slightly more active than GR24
- P. ramosa seed germination activity (P. ramosa seeds): much higher activity

- Stability in comparison to GR24 [2]: very similar to that of GR24
Structure (SMILES): COC(=O)/C(=C/OC1C=C(C)C(=O)O1)c1ccccc1Cl (centres unmarked) [MP9]
- Relative activity in inducing S. hermonthica seed germination (S. hermonthica seeds): followed by MP9
- Growth, senescence symptoms and biomass of rice seedlings [4]: stunted the growth and caused senescence symptoms

Source: US11903386B2, “Strigolactone analogs and their usage in plant control” (King Abdullah University of Science and Technology, priority 2016, dated 2024)
